# Assay results as given in PubChem BioAssay (NCI).
#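 Interpolation was linear, between the two tested concentrations surrounding the appropriate level; five concentrations were tested over 48 hours in 96-well plates. GI50 is the concentration that inhibits growth by half. The concentration for full growth arrest is given as TGI.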
# How the values were obtained:
# Experiment in all cases: growth of human tumour cells (NCI), 48 h
# [1] = test system: HT29 colon
# [2] = test system: SNB-19 CNS
# [3] = test system: MDA-MB-435
# [4] = test system: HL-60(TB) leukemia
# [5] = test system: NCI-H23 lung
# [6] = test system: KM12 colon
# [7] = test system: COLO 205 colon
# [8] = test system: T-47D breast
# [9] = test system: NCI-H460 lung
# [10] = test system: UACC-257 melanoma
SMILES,GI50 [1],TGI [1],GI50 [2],TGI [2],GI50 [3],TGI [3],GI50 [4],TGI [4],GI50 [5],TGI [5],GI50 [6],TGI [6],GI50 [7],TGI [7],GI50 [8],TGI [8],GI50 [9],TGI [9],GI50 [10],TGI [10]
Brc1ccc(Br)nn1,3.38 µM,> 22.3 µM,3.77 µM,15.5 µM,1.75 µM,3.55 µM,1.22 µM,4.85 µM,1.38 µM,4.23 µM,12 µM,26.1 µM,2.12 µM,3.77 µM,1.36 µM,3.77 µM,3.04 µM,> 33.8 µM,1.72 µM,3.89 µM
O=C(NO)c1cnc(N2CCN(S(=O)(=O)c3ccc4ccccc4c3)CC2)nc1,0.0344 µM,2.11 µM,0.238 µM,11.8 µM,0.0456 µM,0.394 µM,0.0457 µM,29.8 µM,0.103 µM,0.897 µM,0.0759 µM,0.412 µM,0.0564 µM,0.294 µM,0.0227 µM,1.79 µM,0.0535 µM,11.9 µM,0.0249 µM,0.188 µM
CCN1C(=O)N(CC)C2C1NN=c1s/c(=C\c3ccccc3)c(=O)n12 (stereo not given),0.0989 µM,> 42.2 µM,0.537 µM,> 100 µM,0.0316 µM,0.109 µM,0.198 µM,0.64 µM,0.544 µM,> 100 µM,0.0705 µM,> 100 µM,0.193 µM,0.657 µM,0.519 µM,> 100 µM,0.21 µM,> 100 µM,> 72.7 µM,> 100 µM
CN1CCN(c2ccc3nc4c(nc3c2C(F)(F)F)C(=O)c2ncccc2C4=O)CC1,2.32 µM,6.18 µM,1.66 µM,5.7 µM,0.178 µM,0.344 µM,1.6 µM,5.92 µM,0.365 µM,1.91 µM,2.28 µM,10.9 µM,1.45 µM,3.29 µM,1.96 µM,4.62 µM,0.273 µM,1.32 µM,0.873 µM,2.4 µM
CON,> 100 µM,> 100 µM,> 100 µM,> 100 µM,> 100 µM,> 100 µM,> 100 µM,> 100 µM,> 100 µM,> 100 µM,> 100 µM,> 100 µM,> 100 µM,> 100 µM,> 100 µM,> 100 µM,> 100 µM,> 100 µM,> 100 µM,> 100 µM
Cc1cc2nc3c4ccccc4n(CCN(C)C)c3nc2cc1C,0.76 µM,4.26 µM,2.33 µM,12.3 µM,1.61 µM,3.47 µM,1.99 µM,6.26 µM,1.87 µM,5.7 µM,1.93 µM,9.8 µM,1.29 µM,4.49 µM,2.8 µM,12.6 µM,0.709 µM,9.1 µM,1.94 µM,5.16 µM
Cc1c(N2C(=O)/C(=C\c3ccc(N(C)C)cc3)N=C2c2ccccc2)c(=O)n(-c2ccccc2)n1C,49.5 µM,> 100 µM,> 100 µM,> 100 µM,> 100 µM,> 100 µM,40.2 µM,> 100 µM,> 92.2 µM,> 100 µM,77.8 µM,> 100 µM,43.7 µM,> 100 µM,19.3 µM,> 87.2 µM,62.9 µM,> 100 µM,> 100 µM,> 100 µM
O=P1(O)c2ccccc2CS(=O)(=O)Cc2ccccc21,–,> 100 µM,–,> 100 µM,–,> 100 µM,–,> 100 µM,–,> 100 µM,–,> 100 µM,–,> 100 µM,–,> 100 µM,–,> 100 µM,–,> 100 µM
COc1ccc(-n2sc(=O)n(Cc3ccc(COC(=O)C(C)c4ccc(CC(C)C)cc4)cc3)c2=O)cc1 (stereo not given),2.12 µM,16.1 µM,7.38 µM,14.5 µM,1.32 µM,3.93 µM,1.23 µM,4.89 µM,5.72 µM,14.1 µM,7.7 µM,14.6 µM,1.1 µM,2.6 µM,1.32 µM,5.54 µM,5.41 µM,12.5 µM,2.02 µM,8.81 µM
CCCCCCC1N=C(N)N=C(N)N1c1ccc(Cl)cc1 (stereo not given),2.66 µM,16.8 µM,8.62 µM,24.9 µM,3.36 µM,17.5 µM,10.1 µM,28.3 µM,5.79 µM,38 µM,10.4 µM,22.9 µM,12.5 µM,26.7 µM,20 µM,70.5 µM,4.69 µM,18.5 µM,13 µM,68.8 µM
Cc1cccnc1CNC1CC(NCc2ncccc2C)CC(NCc2ncccc2C)C1 (stereo not given),3.36 µM,> 39.3 µM,2.04 µM,4.03 µM,4.16 µM,10.7 µM,2.47 µM,5.98 µM,2.8 µM,6.82 µM,4.51 µM,20.4 µM,2.03 µM,4.25 µM,1.94 µM,3.89 µM,2.41 µM,6.03 µM,1.74 µM,3.58 µM
